Laboratory results published in publication PMC5218480 (PLoS ONE, 2017).

Tested on: MV-4-11 cells
Test: Gene expression microarray analysis (Affymetrix PrimeView) and GSEA
Type: cell-based, human
Parameters: RFU PODN (11730768_x_at) / Fold change /veh PODN (11730768_x_at) / RFU LINC00158 (11744669_a_at) / Fold change /veh LINC00158 (11744669_a_at) / RFU DUSP10 (11751237_a_at) / Fold change /veh DUSP10 (11751237_a_at) / RFU ID3 (11757404_x_at) / Fold change /veh ID3 (11757404_x_at) / RFU PLEKHG5 (11737974_s_at) / Fold change /veh PLEKHG5 (11737974_s_at) / RFU LRRC4B (11730491_at) / Fold change /veh LRRC4B (11730491_at) / RFU GIMAP4 (11747438_a_at) / Fold change /veh GIMAP4 (11747438_a_at) / RFU KRT8 (11758183_x_at) / Fold change /veh KRT8 (11758183_x_at) / RFU CNN1 (11734310_a_at) / Fold change /veh CNN1 (11734310_a_at) / RFU VPS37D (11726825_at) / Fold change /veh VPS37D (11726825_at) / RFU C10orf10 (11716522_x_at) / Fold change /veh C10orf10 (11716522_x_at) / RFU KIR2DL2 /// KIR2DL4 /// KIR2DL5A /// KIR2DL5B /// KIR2DS1 /// KIR2DS2 /// KIR2DS3 /// KIR2DS4 /// KIR3DL3 /// KIR3DL3 /// KIR3DS1 (11738374_at) / Fold change /veh KIR2DL2 /// KIR2DL4 /// KIR2DL5A /// KIR2DL5B /// KIR2DS1 /// KIR2DS2 /// KIR2DS3 /// KIR2DS4 /// KIR3DL3 /// KIR3DL3 /// KIR3DS1 (11738374_at) / RFU C1QL1 (11718748_at) / Fold change /veh C1QL1 (11718748_at) / RFU TMPRSS4 (11747572_a_at) / Fold change /veh TMPRSS4 (11747572_a_at) / RFU HAMP (11756126_x_at) / Fold change /veh HAMP (11756126_x_at) / RFU RNFT2 (11725882_a_at) / Fold change /veh RNFT2 (11725882_a_at) / RFU NR4A2 (11747474_a_at) / Fold change /veh NR4A2 (11747474_a_at) / RFU ABCC12 (11746883_a_at) / Fold change /veh ABCC12 (11746883_a_at) / RFU TMEM136 (11760407_x_at) / Fold change /veh TMEM136 (11760407_x_at) / RFU CLDN22 /// WWC2 (11732394_at) / Fold change /veh CLDN22 /// WWC2 (11732394_at) / RFU HLA-DPB1 (11760878_x_at) / Fold change /veh HLA-DPB1 (11760878_x_at) / RFU SPINT1 (11716480_a_at) / Fold change /veh SPINT1 (11716480_a_at) / RFU GAP43 (11754022_s_at) / Fold change /veh GAP43 (11754022_s_at) / RFU A4GNT (11735810_at) / Fold change /veh A4GNT (11735810_at) / RFU PRB3 (11715151_x_at) / Fold change /veh PRB3 (11715151_x_at) / RFU TUBB4B (11761932_at) / Fold change /veh TUBB4B (11761932_at) / RFU CAPN14 (11732068_a_at) / Fold change /veh CAPN14 (11732068_a_at) / RFU TMCC2 (11721928_a_at) / Fold change /veh TMCC2 (11721928_a_at) / RFU IRGQ (11745062_a_at) / Fold change /veh IRGQ (11745062_a_at) / RFU FAM174B (11720279_a_at) / Fold change /veh FAM174B (11720279_a_at) / RFU TMPRSS4 (11748680_a_at) / Fold change /veh TMPRSS4 (11748680_a_at) / RFU FAM212B (11763350_a_at) / Fold change /veh FAM212B (11763350_a_at) / RFU PLEKHG5 (11743358_a_at) / Fold change /veh PLEKHG5 (11743358_a_at) / RFU ZSCAN30 (11745921_a_at) / Fold change /veh ZSCAN30 (11745921_a_at) / RFU CMKLR1 (11741424_a_at) / Fold change /veh CMKLR1 (11741424_a_at) / RFU LOC101060620 /// MAPK8IP1 (11723275_at) / Fold change /veh LOC101060620 /// MAPK8IP1 (11723275_at) / RFU SPTSSB (11747773_x_at) / Fold change /veh SPTSSB (11747773_x_at) / RFU PRSS12 (11739890_at) / Fold change /veh PRSS12 (11739890_at) / RFU BIN1 (11741810_x_at) / Fold change /veh BIN1 (11741810_x_at) / RFU WNT11 (11732464_a_at) / Fold change /veh WNT11 (11732464_a_at) / RFU C10orf10 (11716521_a_at) / Fold change /veh C10orf10 (11716521_a_at) / RFU C5orf56 (11738089_at) / Fold change /veh C5orf56 (11738089_at) / RFU CYB561 (11721691_x_at) / Fold change /veh CYB561 (11721691_x_at) / RFU ANKRD19P (11752326_a_at) / Fold change /veh ANKRD19P (11752326_a_at) / RFU OR2T12 /// OR2T33 /// OR2T8 (11738714_s_at) / Fold change /veh OR2T12 /// OR2T33 /// OR2T8 (11738714_s_at) / RFU VCAN (11748164_a_at) / Fold change /veh VCAN (11748164_a_at) / RFU JSRP1 (11732532_at) / Fold change /veh JSRP1 (11732532_at) / RFU KRTAP10-11 (11738290_x_at) / Fold change /veh KRTAP10-11 (11738290_x_at) / RFU MYO3A (11730013_a_at) / Fold change /veh MYO3A (11730013_a_at) / RFU EBF3 (11725865_a_at) / Fold change /veh EBF3 (11725865_a_at) / RFU CAMK2N1 (11719241_x_at) / Fold change /veh CAMK2N1 (11719241_x_at) / RFU C5orf56 (11738088_a_at) / Fold change /veh C5orf56 (11738088_a_at) / RFU OLFML3 (11715873_a_at) / Fold change /veh OLFML3 (11715873_a_at) / RFU LOC100653217 /// NTM (11731650_a_at) / Fold change /veh LOC100653217 /// NTM (11731650_a_at) / RFU MAPK11 (11762145_a_at) / Fold change /veh MAPK11 (11762145_a_at) / RFU FIZ1 (11724087_x_at) / Fold change /veh FIZ1 (11724087_x_at) / RFU OASL (11726364_x_at) / Fold change /veh OASL (11726364_x_at) / RFU SOX15 (11748057_x_at) / Fold change /veh SOX15 (11748057_x_at) / RFU CD79A (11719716_a_at) / Fold change /veh CD79A (11719716_a_at) / RFU HIST1H1D (11736915_at) / Fold change /veh HIST1H1D (11736915_at) / RFU CASKIN2 (11723855_a_at) / Fold change /veh CASKIN2 (11723855_a_at) / RFU LOC730098 (11760151_x_at) / Fold change /veh LOC730098 (11760151_x_at) / RFU OR4N2 (11742367_at) / Fold change /veh OR4N2 (11742367_at) / RFU PRRT2 (11749266_a_at) / Fold change /veh PRRT2 (11749266_a_at) / RFU SNX32 (11753110_a_at) / Fold change /veh SNX32 (11753110_a_at) / RFU CDHR5 (11726645_a_at) / Fold change /veh CDHR5 (11726645_a_at) / RFU RCAN1 (11760418_a_at) / Fold change /veh RCAN1 (11760418_a_at) / RFU FAM167A (11723789_a_at) / Fold change /veh FAM167A (11723789_a_at) / RFU FAM26E (11764081_at) / Fold change /veh FAM26E (11764081_at) / RFU ISYNA1 (11749810_s_at) / Fold change /veh ISYNA1 (11749810_s_at) / RFU ACY1 (11761880_at) / Fold change /veh ACY1 (11761880_at) / RFU 11764098_at / Fold change /veh 11764098_at / RFU SAMD14 (11745864_x_at) / Fold change /veh SAMD14 (11745864_x_at) / RFU NPB (11741838_a_at) / Fold change /veh NPB (11741838_a_at) / RFU TMPRSS6 (11731388_a_at) / Fold change /veh TMPRSS6 (11731388_a_at) / RFU KRTAP10-2 (11738614_at) / Fold change /veh KRTAP10-2 (11738614_at) / RFU ARHGAP8 /// PRR5-ARHGAP8 (11727945_x_at) / Fold change /veh ARHGAP8 /// PRR5-ARHGAP8 (11727945_x_at) / RFU KRTAP5-7 /// NADSYN1 (11734609_at) / Fold change /veh KRTAP5-7 /// NADSYN1 (11734609_at) / RFU RASL12 (11751679_a_at) / Fold change /veh RASL12 (11751679_a_at) / RFU CDKN2B (11736163_a_at) / Fold change /veh CDKN2B (11736163_a_at) / RFU PRF1 (11729649_at) / Fold change /veh PRF1 (11729649_at) / RFU, ZNF638 /// ZNF638-IT1 / Fold change vs veh, ZNF638 /// ZNF638-IT1 / RFU, PANK3 / Fold change vs veh, PANK3 / RFU, SH3YL1 / Fold change vs veh, SH3YL1 / RFU, ZEB2 / Fold change vs veh, ZEB2 / RFU, NRIP1 / Fold change vs veh, NRIP1 / RFU, PTTG1IP / Fold change vs veh, PTTG1IP / RFU, CAPN2 / Fold change vs veh, CAPN2 / RFU, MED14 / Fold change vs veh, MED14 / RFU, SNORA58 / Fold change vs veh, SNORA58 / RFU, C1orf63 / Fold change vs veh, C1orf63 / RFU, LRRFIP1 / Fold change vs veh, LRRFIP1 / RFU, NDUFAF7 / Fold change vs veh, NDUFAF7 / RFU, SLC12A2 / Fold change vs veh, SLC12A2 / RFU, IBTK / Fold change vs veh, IBTK / RFU, ESF1 / Fold change vs veh, ESF1 / Fold change vs veh, TMEM50B / RFU, TAOK1 / Fold change vs veh, TAOK1 / RFU, ACBD3 / Fold change vs veh, ACBD3 / RFU, TMA16 / Fold change vs veh, TMA16 / RFU, RWDD3 / Fold change vs veh, RWDD3 / RFU, BCAT1 / Fold change vs veh, BCAT1 / RFU, EDEM3 / Fold change vs veh, EDEM3 / RFU, TMEM33 / Fold change vs veh, TMEM33 / RFU, WDR75 / Fold change vs veh, WDR75 / RFU, AHCTF1 / Fold change vs veh, AHCTF1 / RFU, TFRC / Fold change vs veh, TFRC / RFU, ZDHHC17 / Fold change vs veh, ZDHHC17 / RFU, NOM1 / Fold change vs veh, NOM1 / RFU, ARL8B / Fold change vs veh, ARL8B / RFU, ZBTB11 / Fold change vs veh, ZBTB11 / RFU, TAMM41 / Fold change vs veh, TAMM41 / RFU, KIAA1704 /// LOC100996395 / Fold change vs veh, KIAA1704 /// LOC100996395 / RFU, ING1 / Fold change vs veh, ING1 / RFU, TRMT61B / Fold change vs veh, TRMT61B / RFU, FUBP3 / Fold change vs veh, FUBP3 / RFU, TP53 / Fold change vs veh, TP53 / RFU, TNKS2 / Fold change vs veh, TNKS2 / RFU, ZFP14 / Fold change vs veh, ZFP14 / RFU, ACTR2 / Fold change vs veh, ACTR2 / RFU, PPP3R1 / Fold change vs veh, PPP3R1 / RFU, PIK3R1 / Fold change vs veh, PIK3R1 / RFU, HNRNPA1 / Fold change vs veh, HNRNPA1 / RFU, RNF170 / Fold change vs veh, RNF170 / RFU, ZNF28 / Fold change vs veh, ZNF28 / RFU, RNGTT / Fold change vs veh, RNGTT / RFU, OGT / Fold change vs veh, OGT / RFU, BRD1 / Fold change vs veh, BRD1 / RFU, MARS / Fold change vs veh, MARS / RFU, ZNF655 / Fold change vs veh, ZNF655 / RFU, FAHD1 / Fold change vs veh, FAHD1 / RFU, BDP1 / Fold change vs veh, BDP1 / RFU, LRRCC1 / Fold change vs veh, LRRCC1 / RFU, ARID1A / Fold change vs veh, ARID1A / RFU, ZNF146 / Fold change vs veh, ZNF146 / RFU, ZNF330 / Fold change vs veh, ZNF330 / RFU, GPN3 / Fold change vs veh, GPN3 / RFU, C9orf123 / Fold change vs veh, C9orf123 / RFU, N4BP2L2 / Fold change vs veh, N4BP2L2 / RFU, ARFIP1 / Fold change vs veh, ARFIP1 / RFU, FAM179B / Fold change vs veh, FAM179B / RFU, BCL10 / Fold change vs veh, BCL10 / RFU, UHRF1BP1L / Fold change vs veh, UHRF1BP1L / RFU, BET1 / Fold change vs veh, BET1 / RFU, CNOT2 / Fold change vs veh, CNOT2 / RFU, ZNF268 / Fold change vs veh, ZNF268 / Fold change vs veh, ZNF507 / RFU, DGCR2 / Fold change vs veh, DGCR2 / RFU, WDSUB1 / Fold change vs veh, WDSUB1 / Fold change vs veh, HSP90B1 /// MIR3652 / RFU, ADSS / Fold change vs veh, ADSS / RFU, GK / Fold change vs veh, GK / RFU, ZNF148 / Fold change vs veh, ZNF148 / RFU, TAF9 / Fold change vs veh, TAF9 / RFU, SLC1A5 / Fold change vs veh, SLC1A5 / RFU, SLMO2 / Fold change vs veh, SLMO2 / RFU, ABCC4 / Fold change vs veh, ABCC4 / RFU, LOC101060439 /// RAP1B / Fold change vs veh, LOC101060439 /// RAP1B / RFU, RFX7 / Fold change vs veh, RFX7 / RFU, GTPBP10 / Fold change vs veh, GTPBP10 / RFU, CNEP1R1 / Fold change vs veh, CNEP1R1 / RFU, BIVM-ERCC5 /// ERCC5 / Fold change vs veh, BIVM-ERCC5 /// ERCC5 / RFU, ILF3 / Fold change vs veh, ILF3 / RFU 11762660_at / Fold change /veh 11762660_at / RFU VCAN (11757783_s_at) / Fold change /veh VCAN (11757783_s_at) / RFU DDX43 (11728927_at) / Fold change /veh DDX43 (11728927_at) / RFU KRT8 (11758188_x_at) / Fold change /veh KRT8 (11758188_x_at) / RFU NKD1 (11759106_at) / Fold change /veh NKD1 (11759106_at) / RFU SRD5A1 (11742802_a_at) / Fold change /veh SRD5A1 (11742802_a_at) / RFU TPSAB1 /// TPSB2 (11721975_s_at) / Fold change /veh TPSAB1 /// TPSB2 (11721975_s_at) / RFU GSTM3 (11746129_a_at) / Fold change /veh GSTM3 (11746129_a_at) / RFU IL23R (11737362_x_at) / Fold change /veh IL23R (11737362_x_at) / RFU TMEM51 (11727254_a_at) / Fold change /veh TMEM51 (11727254_a_at) / RFU PIWIL2 (11732686_x_at) / Fold change /veh PIWIL2 (11732686_x_at) / RFU ORM1 (11744905_x_at) / Fold change /veh ORM1 (11744905_x_at) / RFU CCDC152 (11743942_at) / Fold change /veh CCDC152 (11743942_at) / RFU ECM1 (11717891_a_at) / Fold change /veh ECM1 (11717891_a_at) / RFU IL23R (11748794_a_at) / Fold change /veh IL23R (11748794_a_at) / RFU TNFAIP8L3 (11732012_x_at) / Fold change /veh TNFAIP8L3 (11732012_x_at) / RFU MBOAT4 (11741988_at) / Fold change /veh MBOAT4 (11741988_at) / RFU 11764193_at / Fold change /veh 11764193_at / RFU TMEM53 (11763286_at) / Fold change /veh TMEM53 (11763286_at) / RFU MAGEB2 (11727129_at) / Fold change /veh MAGEB2 (11727129_at) / RFU TMEM200A (11744735_a_at) / Fold change /veh TMEM200A (11744735_a_at) / RFU CCDC152 (11751479_a_at) / Fold change /veh CCDC152 (11751479_a_at) / RFU FAM211A (11726209_a_at) / Fold change /veh FAM211A (11726209_a_at) / RFU RGS16 (11746705_a_at) / Fold change /veh RGS16 (11746705_a_at) / RFU VCAN (11755009_s_at) / Fold change /veh VCAN (11755009_s_at) / RFU RHOB (11743442_s_at) / Fold change /veh RHOB (11743442_s_at) / RFU RGS16 (11720943_a_at) / Fold change /veh RGS16 (11720943_a_at) / RFU RGS16 (11720944_at) / Fold change /veh RGS16 (11720944_at) / RFU, VPS4B / Fold change vs veh, VPS4B / RFU, CREB1 / Fold change vs veh, CREB1 / RFU, DNAJC13 / Fold change vs veh, DNAJC13 / RFU, GNAQ / Fold change vs veh, GNAQ / RFU, CDK5R1 / Fold change vs veh, CDK5R1 / RFU, ZRANB3 / Fold change vs veh, ZRANB3 / RFU, CUL4A / Fold change vs veh, CUL4A / RFU, CCNY / Fold change vs veh, CCNY / RFU, UFL1 / Fold change vs veh, UFL1 / RFU, COG3 / Fold change vs veh, COG3 / RFU, DIAPH2 / Fold change vs veh, DIAPH2 / RFU, SKA2 / Fold change vs veh, SKA2 / RFU, AFF3 / Fold change vs veh, AFF3 / RFU, LMF1 / Fold change vs veh, LMF1 / RFU, IPO11 / Fold change vs veh, IPO11 / RFU, DFFB / Fold change vs veh, DFFB / RFU, FOXP1 / Fold change vs veh, FOXP1 / RFU, CARD8 / Fold change vs veh, CARD8 / RFU, STRN3 / Fold change vs veh, STRN3 / RFU, ADK / Fold change vs veh, ADK / RFU, RASSF2 / Fold change vs veh, RASSF2 / RFU, WIPF1 / Fold change vs veh, WIPF1 / RFU, LARP1B / Fold change vs veh, LARP1B / RFU, RASA1 / Fold change vs veh, RASA1 / RFU, RB1 / Fold change vs veh, RB1 / RFU, PPFIA1 / Fold change vs veh, PPFIA1 / RFU, MAT2A / Fold change vs veh, MAT2A / RFU, CCT5 / Fold change vs veh, CCT5 / RFU, WDR92 / Fold change vs veh, WDR92 / RFU, CUX1 / Fold change vs veh, CUX1 / RFU, TTC7A / Fold change vs veh, TTC7A / RFU, TMEM135 / Fold change vs veh, TMEM135 / RFU, DEPTOR / Fold change vs veh, DEPTOR / RFU, CPM / Fold change vs veh, CPM / RFU, DNAJB6 / Fold change vs veh, DNAJB6 / RFU, CACNA2D3 / Fold change vs veh, CACNA2D3 / RFU, DTX4 / Fold change vs veh, DTX4 / RFU, TFCP2 / Fold change vs veh, TFCP2 / RFU, GMCL1 /// GMCL1P1 / Fold change vs veh, GMCL1 /// GMCL1P1 / RFU, AEBP2 / Fold change vs veh, AEBP2 / RFU, SNHG1 /// SNORD22 /// SNORD25 /// SNORD26 /// SNORD27 /// SNORD28 /// SNORD29 /// SNORD31 / Fold change vs veh, SNHG1 /// SNORD22 /// SNORD25 /// SNORD26 /// SNORD27 /// SNORD28 /// SNORD29 /// SNORD31 / Fold change (Aza/veh), C12orf56 (ProbeSet 11735607_a_at) / Fold change (ACY-1035/veh), C12orf56 (ProbeSet 11735607_a_at) / Fold change (Aza/veh), FGFR1OP (ProbeSet 11751329_s_at) / Fold change (ACY-1035/veh), FGFR1OP (ProbeSet 11751329_s_at) / Fold change (Aza/veh), VPS36 (ProbeSet 11739960_a_at) / Fold change (ACY-1035/veh), VPS36 (ProbeSet 11739960_a_at) / RFU SYPL1 (11715823_x_at) / Fold change /veh SYPL1 (11715823_x_at) / RFU IGFBP7 (11715501_s_at) / Fold change /veh IGFBP7 (11715501_s_at) / RFU REEP3 (11722064_at) / Fold change /veh REEP3 (11722064_at) / RFU IGLL1 (11728026_x_at) / Fold change /veh IGLL1 (11728026_x_at): dose or concentration left out as unconfirmed
Conditions: ProbeSet 11721611_a_at; LIST D

Nc1ncn([C@@H]2O[C@H](CO)[C@@H](O)[C@H]2O)c(=O)n1 [azacitidine]
Fold change vs veh, IPO11: 0.66
